Assays:
Type in all cases: in vivo, mouse
[1] = test system: MC38 tumor cells; test: MC38 tumor growth and treatment in mice
Procedure: (§1) Tumor growth and treatment. A total of 5×10^5 MC38, 5×10^5 CT26 or 1×10^6 LLC cells were inoculated subcutaneously into right dorsal flanks of the mice in 100 μL phosphate buffered saline (PBS). Tumor-bearing mice were randomly grouped into treatment groups when tumors grew to around 100 mm^3. For 6-thio-dG single treatment, 3 mg/kg 6-thio-dG was intraperitoneally given on days 7, 8 and 9 in MC38 tumor and LLC tumor and on days 5, 6, 7 for CT26 tumor. For CSF1R, NKL.1, CD4+ and CD8+ T cell depletion, 200 μg of antibodies were intraperitoneally injected 1 day before treatment initiation and then twice a week for 2 weeks. For PD-L1 blockade combination therapy in MC38 model, 6-thio-dG was given on day 10 and day 11, 50 μg PD-L1 was intraperitoneally injected on day 13 and 17. For PD-L1 blockade combination therapy in LLC model, 6-thio-dG was given on day 4, 5, 6, 10 and 11, 200 μg PD-L1 was intraperitoneally injected on day 8 and 13. Tumor volumes were measured by the length (a), width (b) and height (h) and calculated as tumor volume=abh/2.

[2] = test system: LLC murine lung tumor cells; test: LLC tumor growth and treatment in mice
Procedure: as §1, with “For 6-thio-dG single treatment, 3 mg/kg 6-thio-dG was intraperitoneally given on days 7, 8 and 9 in MC38 tumor and LLC tumor and on days 5, 6, 7 for CT26 tumor.” left out

[3] = test system: tumor-specific T cells; test: IFN-γ ELISPOT of splenocytes / draining lymph node cells; conditions: advanced MC38 tumors; stimulated with irradiated MC38 tumor cells
Procedure: IFN-γ enzyme-linked immunosorbent spot assay (ELISPOT). MC38 tumors were injected subcutaneously on the right flank of C57BL/6. For 6-thio-dG single treatment, 3 mg/kg 6-thio-dG was intraperitoneally given on days 7, 8 and 9; for PD-L1 blockade combination therapy in MC38 model, 3 mg/kg 6-thio-dG was given on day 10 and day 11, 50 μg PD-L1 was intraperitoneally injected on day 11. 7 days after last treatment, tumor draining lymphoid and spleen from tumor-bearing mice were collected and single-cell suspension was prepared. Irradiated MC38 tumor cells and control LLC tumor cells were used to re-stimulate the tumor-specific T cells. 1.5×10^5 draining lymph nodes cells or splenocytes and 7.5×10^4 irradiated tumor cells were co-cultured for 48 hrs, and ELISPOT assay was performed using the IFN-γ ELISPOT kit (BD Bioscience) according to the manufacturer's instructions. IFN-γ spots were enumerated with the CTL-ImmunoSpot® S6 Analyzer (Cellular Technology Limited).

With “anti-PD-L1: fully humanized, engineered monoclonal antibody of IgG1 isotype against PD-L1 (Atezolizumab) [reference compound]” the “MC38 tumors in LLC cured mice” value ([1]; LLC cured mice injected with MC38) was “had no affect”, the “tumor volume / tumor growth in advanced tumors” value ([1]; tumor sizes 150-200 mm^3, 6-thio-dG 3 mg/kg days 10, 11, 50 μg anti-PD-L1 days 13 and 17) was “difficult to control” and the tumor burden ([2]; PD-L1 blockade resistant LLC model, 6-thio-dG 3 mg/kg days 4, 5, 6, 10, 11, 200 μg anti-PD-L1 days 8 and 13) was “no therapeutic effect”. For the same substance, the “tumor growth (FIG. 8A)” value ([2]; lewis lung carcinoma, three days 6-thio-dG followed two days later with anti-PD-L1) was “same rapid tumor growth” and the “tumor-specific T cell response in draining lymph nodes (IFN-γ production)” value [3] was “little effect”.

Reference: patent US12097213B2, “Sequential treatment of cancers using 6-thio-dG, checkpoint inhibitors and radiation therapy” (The Board of Regents of the University of Texas System, priority 2020, dated 2024)
